{"source": "patent US20110060037A1", "about": "“USE OF NPY Y5 RECEPTOR ANTAGONISTS FOR THE PREVENTION OF PSYCHO-STIMULANT AND OPIOID ABUSE” (priority 2008, published 2011)", "key": {"[1]": {"system": "Y5-KO and WT mice", "assay": "Acute self-administration of cocaine in Y5-KO and WT mice", "format": "in vivo", "details": "inverted U-shaped curve, FIG. 4"}, "[2]": {"system": "NMRI mice", "assay": "Acute self-administration: cocaine reinforcement", "format": "in vivo", "details": "for nose-poking when saline was the i.v.-reinforcer (per se effect): L-152,804 10 mg/kg p.o. vs vehicle p.o."}, "[3]": {"system": "C57Bl/6 mice", "assay": "Cocaine-induced conditioned place preference (CPP)", "format": "in vivo", "source_text": "The CPP apparatus consisted of eight parallel set-ups, each consisting of two separate compartments measuring 19×19×19 cm. The walls extended upwards with clear Plexiglas plates to a total height of 43 cm, having the function of preventing the mice from jumping out, and at the same time allowing light to enter. The two compartments differed in visual as well as tactile cues. In one compartment, the walls and floor were painted white, and the floor was smooth, whereas in the other compartment, the walls were black, and the floor provided texture by insertion of a grey Lego plate. During habituation, post-conditioning test, extinction, and reinstatement, the mice were free to move between the two compartments through a square hole (3.5×3.5 cm). During conditioning, this opening was closed by insertion of a wooden plate. The movements of the animals were measured with the video-tracking program EthoVision (Noldus, Netherlands).\nThe CPP procedure consisted of the following consecutive phases: Habituation (2 days), conditioning (8 days), post-conditioning test (1 day), extinction (3 days), reinstatement test (1 day). Habituation (days 1-2): Each day the mice were placed into the white compartment of the CPP boxes with the door open and allowed to explore the compartments for 20 minutes to become habituated to the CPP apparatus. On the second day (i.e., the pre-conditioning test), the time spent in each of the two compartments (black or white) was recorded. This determined the preferred compartment of each mouse. No injections were given during these sessions.\nConditioning (days 3-10): Before eight daily 30 minutes conditioning sessions the animals received i.p. injections of either drug or isotonic saline, and the door between the two compartments was closed. Drug groups received drug injections on drug-days and were placed 2-5 min. later in their non-preferred compartment. On non drug-days, these animals received vehicle injections and were subsequently placed in their preferred compartment. All control animals received injections with vehicle each day and were placed in alternating compartments (black/white) on alternating days. […]\nPost-conditioning test (day 11): The test was conducted on the day after the last conditioning session. Mice were allowed free access to both compartments for 20 minutes during which the amount of time spent in each compartment was recorded as described above for the pre-conditioning test. […]\nExtinction and reinstatement: During an extinction period of three days the animals were exposed to the apparatus as during the post-conditioning test for 20 minutes each day with open doors and without prior injection. […] Subsequently, the time spent in the previously drug-paired (non-preferred) compartment was recorded for 20 min. […]"}, "[4]": {"system": "NMRI mice", "assay": "Cocaine-induced hyperactivity", "format": "in vivo", "source_text": "The apparatus for measuring locomotor hyperactivity consisted of 16 activity Plexiglas boxes (37×21×17 cm). Eight dual photocells placed throughout the length of each box, detected movement of the animals. A plate was placed on top of the box in order to keep the mice from jumping out during the sessions. Sawdust was placed in a thin layer on the floor of the box. All activity boxes were connected to an interface (SG 502, Med. Associates Inc., East Fairfield, Vt., USA), measuring each beam-break. A computer and activity software (Ellegaard Systems, DK) were used to record the results from each activity box.\nIn all activity experiments an i.p. injection of either vehicle or drug was administered 3-7 minutes before testing. The animal was then placed in an activity box and the activity was measured for 30 minutes. […]\nConditioned place preference data were analysed using repeated measure one-way ANOVA between days within each group on all four groups of both experiments. […] Post-conditioning test and reinstatement presented as percent of its own saline group were analysed with a one-way ANOVA followed by post-hoc LSD t-tests. Total crossings were analysed with a one-way ANOVA followed by post-hoc LSD t-tests. Data presented as 5 minutes intervals was analysed using repeated measures ANOVA with treatment as between subjects factor followed by LSD post-hoc t-test. […]"}, "[5]": {"system": "rats", "details": "rats treated with L-152,804; cited from earlier work"}, "[6]": {"system": "NMRI mice", "assay": "Acute self-administration: food reinforcement", "format": "in vivo", "details": "L-152,804 10 mg/kg p.o. two hours before; fasted overnight; P=0.573 vs. vehicle pre-treated ensure; FIG. 3", "experimental": "The self-administration apparatus used was described above. The end of the PVC tubing, mentioned above, was secured on the outside of the self-administration box at the top of the nose-poke hole, thereby enabling the mice to reach the end of the PVC tube to acquire the content used as reinforcer (ensure protein drink, Abbott Laboratories, USA). The animals fasted overnight, with water still available.\nMale NMRI mice received p.o. administration of L-152,804 (10 mg/kg) or corresponding vehicle. Two hours later, the animals were subjected to the self-administration procedure described above with access to PVC tubing containing ensure (nvehicle=11, nL-152,804=13) or without any drink content (=control, n=16).\nData were analyzed using SPSS (SPSS Inc, USA). In the self-administration experiments, two animals from the L-152,804 experiment were excluded. […] In the first and third self-administration experiments, data were analyzed using one-way analysis of variance (ANOVA) followed by post-hoc LSD t-test. […] Subsequently, after significant treatment effect of cocaine, data were analyzed using one-way ANOVA followed by post-hoc LSD t-tests. […]"}, "[7]": {"details": "2 hrs after oral administration, 10 mg/kg; cited from earlier work"}, "[8]": {"target": "T1, Y5 receptor (Mus musculus, UniProt O70342)", "T1 construct": "close to 80% Y5 receptor occupancy in the mouse brain has also been observed between one and four hours after oral administration; host or cells: mouse brain (in vivo, after oral dosing)", "T1 sequence (O70342 1-466)": "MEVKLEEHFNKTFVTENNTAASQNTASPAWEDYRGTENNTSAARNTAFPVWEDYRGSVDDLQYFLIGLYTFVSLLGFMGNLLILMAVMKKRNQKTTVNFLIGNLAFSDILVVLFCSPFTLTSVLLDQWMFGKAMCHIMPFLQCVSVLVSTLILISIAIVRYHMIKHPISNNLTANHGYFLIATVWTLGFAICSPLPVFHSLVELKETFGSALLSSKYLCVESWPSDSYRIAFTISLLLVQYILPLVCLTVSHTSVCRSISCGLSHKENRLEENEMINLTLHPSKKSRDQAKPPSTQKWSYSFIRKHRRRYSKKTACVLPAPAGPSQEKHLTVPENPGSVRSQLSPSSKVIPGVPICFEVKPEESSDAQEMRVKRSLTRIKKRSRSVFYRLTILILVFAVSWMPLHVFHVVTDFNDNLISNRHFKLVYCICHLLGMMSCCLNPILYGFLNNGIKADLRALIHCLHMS", "details": "cited from earlier work"}}, "note": "“Also recorded” adds a separate entry of the source.", "data": [{"smiles": "COC(=O)[C@H]1[C@@H](OC(=O)c2ccccc2)C[C@@H]2CC[C@H]1N2C", "note": "[cocaine]", "values": [{"measurement": "cocaine dose at which self-administration reaches maximum", "setting": "[1]", "value": 0.03, "unit": "mg/kg/infusion"}, {"measurement": "cocaine dose at which self-administration reaches maximum", "setting": "[2]; vehicle p.o. pre-treated NMRI mice, inverted U-shaped curve", "value": 0.03, "unit": "mg/kg/infusion"}]}, {"smiles": "CC1(C)CC(=O)C(C2C3=C(CC(C)(C)CC3=O)Oc3ccccc32)C(=O)C1", "note": "[L-152,804, 5,5-Dimethyl-2-(2,3,4,9-tetrahydro-3,3-dimethyl-1oxo-1H-xanthen-9-yl)-1,3-cyclohexanedione]", "values": [{"measurement": "induction of cocaine place preference (post-conditioning vs. pre-conditioning test)", "setting": "[3]; L-152,804 3, 10, 30 mg/kg p.o. two hours prior to cocaine 10 mg/kg i.p. conditioning, FIG. 5A", "value": "did not attenuate; also recorded: caused significant place preference similar to that observed without the Y5-antagonist"}, {"measurement": "reinstatement of cocaine-induced place preference vs. own pre-conditioning test", "setting": "[3]; L-152,804 3, 10, 30 mg/kg p.o., cocaine priming 5 mg/kg, FIG. 5A", "value": "absent; also recorded: prevented significant reinstatement"}, {"measurement": "reinstatement as percent of the vehicle p.o./saline i.p. group", "setting": "[3]; L-152,804 3, 10, 30 mg/kg p.o., cocaine priming 5 mg/kg, FIG. 5B", "value": "dose-dependently attenuated; also recorded: only the highest dose of L-152,804 (30 mg/kg) blocked reinstatement"}, {"measurement": "extinction of cocaine place preference", "setting": "[3]; L-152,804 3, 10, 30 mg/kg p.o., three extinction days, vehicle/cocaine group reached full extinction on day 3", "value": "significantly faster; also recorded: full extinction already on the first extinction day"}, {"measurement": "cocaine-induced hyperactivity (locomotor activity, beam crossings)", "setting": "[4]; L-152,804 10 mg/kg p.o. two hours prior to cocaine 10 mg/kg, 30 min observation and 5-min intervals, FIG. 7", "value": "appeared to be attenuated; also recorded: prevented a significant cocaine-induced increase in locomotor activity"}, {"measurement": "locomotor activity in saline i.p.-treated animals", "setting": "[4]; L-152,804 10 mg/kg p.o. vs vehicle", "value": "No effect"}, {"measurement": "distance travelled", "setting": "[5]", "value": "no change in distance travelled"}, {"measurement": "food (ensure protein drink) self-administration", "setting": "[6]", "value": "had no effect; also recorded: did not alter"}, {"measurement": "amount of L-152,804 in the rat brain", "setting": "[7]", "value": "significant amount"}, {"measurement": "nose-poking when saline was the i.v.-reinforcer (per se effect)", "setting": "[2]", "value": "no effect; also recorded: did not significantly decrease"}, {"measurement": "nose-poking when saline was the i.v.-reinforcer (per se effect)", "setting": "[2]; listed as L-152,802", "value": "No per se effect"}, {"measurement": "self-administration of cocaine (nose-poking), significance of decrease", "setting": "[2]; L-152,804 10 mg/kg p.o., cocaine 0.03 mg/kg/infusion, P=0.004", "value": "reaching significance"}, {"measurement": "cocaine self-administration vs. saline i.v. in L-152,804-pretreated mice", "setting": "[2]; L-152,804 10 mg/kg p.o., cocaine 0.01-1.0 mg/kg/infusion, post-hoc LSD t-tests", "value": "no significant doses vs. saline; also recorded: did not self-administer cocaine at a significantly higher rate"}, {"measurement": "downward shift of the cocaine dose-response curve (efficacy of cocaine)", "setting": "[2]; L-152,804 10 mg/kg p.o., vertex of fitted parabola, likelihood ratio test P<0.001", "value": "shifted down; also recorded: shifted significantly downward"}, {"measurement": "shift of the cocaine dose-response curve to the right or left (potency of cocaine)", "setting": "[2]; L-152,804 10 mg/kg p.o., vertex of fitted parabola, likelihood ratio test P=0.25", "value": "neither shifted significantly to the right nor to the left; also recorded: showed a tendency toward a rightward shift"}, {"measurement": "self-administration of cocaine (nose-poking), significance of decrease", "setting": "[2]; L-152,804 30 mg/kg p.o., cocaine 0.03 mg/kg/infusion, P=0.002", "value": "reaching significance"}, {"measurement": "self-administration of cocaine (nose-poking)", "setting": "[2]; cocaine 0.03 mg/kg/infusion i.v., L-152,804 3, 10 or 30 mg/kg p.o. two hours before, FIG. 1", "value": "significantly and dose-dependently decreased"}, {"measurement": "nose-poking frequency of i.v.-administered cocaine at the other self-administered cocaine dose", "setting": "[2]; second experiment, L-152,804 10 mg/kg p.o., cocaine 0.01 mg/kg/infusion as printed", "value": "showed a similar trend"}, {"measurement": "nose-poking frequency of i.v.-administered cocaine at the peak dose of cocaine", "setting": "[2]; second experiment, L-152,804 10 mg/kg p.o., cocaine 0.03 mg/kg/infusion, P=0.006, FIG. 2", "value": "significantly reduced"}, {"measurement": "Y5 receptor occupancy in mouse brain", "setting": "[8]; 2 h after oral administration of L-152,804", "value": 80, "unit": "%"}, {"measurement": "Y5 receptor occupancy in the mouse brain", "setting": "[8]; between one and four hours after oral administration of L-152,804", "value": "~80", "unit": "%"}]}]}
